Measurements from article PMC7101356, “Cross-site and cross-platform variability of automated patch clamp assessments of drug effects on human cardiac currents in recombinant cells” (Scientific Reports, 2020).

Legend:
hCav1.2 = hCav1.2 (Homo sapiens, UniProt Q13936); test: Automated patch clamp, hCav1.2 current block; conditions: for IC50: log IC50, half-maximal inhibitory concentration
Description: Peak current was measured during the step to 0 mV. Leak current was measured after applying a saturating concentration of a blocker such as cadmium (200 µM) at the end of each experiment to completely block hCav1.2 current.
Concentration-response relationships for each test article were independently investigated, i.e., each cell received only one test article, typically evaluating multiple concentrations in a cumulative fashion (lowest to highest concentrations). However, some platforms tested only one concentration per well. Each concentration response was based on a minimum of four concentrations, with a minimum of three wells used for each concentration. In cases of high variability, more cells per concentration were recorded. Prior to drug addition, cells received an addition of vehicle to measure non-test article-related effects such as addition artifacts. At the end of the experiment, a supramaximal concentration of a known inhibitory reference compound was applied to assess leak current and appropriate responsiveness of the test system. While it was recommended that a separate group of cells (n ≥ 3) be recorded for each experimental day to determine the baseline response to vehicle and to address day-to-day variability, this was not verified.
These criteria were applied to all APC platforms.
The steady state current at each concentration was used to determine the concentration-response relationships. Mean concentration-response data were fitted to a standard sigmoidal four-parameter logistic equation (GraphPad Prism 7; GraphPad Inc., La Jolla, CA) of the form: Y=Bottom+(Top−Bottom)/(1+10^∧(LogIC50−X)∗HillSlope) where Y is the current inhibition (in % of pre-drug control), X is the logarithm of drug concentration, and IC50 is the drug concentration producing half-maximal current inhibition. Curve fitting was performed using the following constraints: Top = 100%, Bottom = 0%, Hill Slope <2. No curve fitting was performed in cases with an obvious lack of a concentration-dependent current inhibition and/or small effect size (approximately ≤20%).

hERG = hERG (Homo sapiens, UniProt Q12809); test: Automated patch clamp, hERG current block (consensus step-ramp protocol); conditions: for hERG K+ current inhibition, Mean, at maximal concentration: max conc [mol/L]: bep 3.00E-07, cpz 3.00E-06, cis 3.00E-07, dil 1.00E-04, dof 1.00E-07, mex 1.00E-04, ond 1.00E-05, qui 1.00E-05, ran 1.00E-04, sot 3.00E-04, ter 3.00E-07, ver 1.00E-06; for hERG K+ current inhibition, Mean, at minimal concentration: min conc [mol/L]: bep 1.00E-08, cpz 1.00E-07, cis 1.00E-09, dil 3.00E-06, dof 1.00E-09, mex 1.00E-06, ond 3.00E-07, qui 1.00E-07, ran 3.00E-06, sot 1.00E-05, ter 1.00E-08, ver 3.00E-08
hERG, sequence (Q12809 whole entry): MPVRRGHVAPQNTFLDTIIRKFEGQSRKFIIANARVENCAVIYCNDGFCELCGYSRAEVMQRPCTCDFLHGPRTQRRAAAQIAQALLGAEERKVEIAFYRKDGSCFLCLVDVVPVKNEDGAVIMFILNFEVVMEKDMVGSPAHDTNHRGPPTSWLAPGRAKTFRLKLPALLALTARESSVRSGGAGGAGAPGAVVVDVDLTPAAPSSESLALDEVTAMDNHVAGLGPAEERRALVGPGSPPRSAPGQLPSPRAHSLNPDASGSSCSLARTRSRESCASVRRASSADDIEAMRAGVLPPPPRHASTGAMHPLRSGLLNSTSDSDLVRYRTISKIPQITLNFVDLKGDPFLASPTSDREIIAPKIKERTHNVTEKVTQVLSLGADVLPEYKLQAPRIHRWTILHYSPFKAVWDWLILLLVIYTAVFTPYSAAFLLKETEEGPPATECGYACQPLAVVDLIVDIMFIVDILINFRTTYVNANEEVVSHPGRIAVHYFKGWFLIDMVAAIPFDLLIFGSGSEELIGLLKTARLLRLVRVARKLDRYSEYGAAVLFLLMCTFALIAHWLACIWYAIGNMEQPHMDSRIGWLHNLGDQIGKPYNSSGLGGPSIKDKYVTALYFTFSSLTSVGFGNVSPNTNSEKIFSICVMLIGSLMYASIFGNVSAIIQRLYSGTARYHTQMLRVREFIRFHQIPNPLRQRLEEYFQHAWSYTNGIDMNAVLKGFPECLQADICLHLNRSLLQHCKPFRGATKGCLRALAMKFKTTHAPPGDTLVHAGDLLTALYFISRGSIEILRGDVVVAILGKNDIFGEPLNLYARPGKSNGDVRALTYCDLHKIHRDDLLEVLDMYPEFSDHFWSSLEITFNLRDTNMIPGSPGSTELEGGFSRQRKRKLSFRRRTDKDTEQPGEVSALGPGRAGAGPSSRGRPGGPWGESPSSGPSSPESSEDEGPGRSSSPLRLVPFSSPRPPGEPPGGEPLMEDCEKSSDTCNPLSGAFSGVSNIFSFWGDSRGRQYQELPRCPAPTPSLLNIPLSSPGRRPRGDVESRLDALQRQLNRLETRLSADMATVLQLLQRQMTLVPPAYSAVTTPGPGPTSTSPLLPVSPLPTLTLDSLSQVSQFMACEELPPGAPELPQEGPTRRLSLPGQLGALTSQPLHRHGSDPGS

[1] = s03_p2, HEK293, room temperature
[2] = s16_p3, HEK293, room temperature

hCav1.2, sequence (Q13936 whole entry): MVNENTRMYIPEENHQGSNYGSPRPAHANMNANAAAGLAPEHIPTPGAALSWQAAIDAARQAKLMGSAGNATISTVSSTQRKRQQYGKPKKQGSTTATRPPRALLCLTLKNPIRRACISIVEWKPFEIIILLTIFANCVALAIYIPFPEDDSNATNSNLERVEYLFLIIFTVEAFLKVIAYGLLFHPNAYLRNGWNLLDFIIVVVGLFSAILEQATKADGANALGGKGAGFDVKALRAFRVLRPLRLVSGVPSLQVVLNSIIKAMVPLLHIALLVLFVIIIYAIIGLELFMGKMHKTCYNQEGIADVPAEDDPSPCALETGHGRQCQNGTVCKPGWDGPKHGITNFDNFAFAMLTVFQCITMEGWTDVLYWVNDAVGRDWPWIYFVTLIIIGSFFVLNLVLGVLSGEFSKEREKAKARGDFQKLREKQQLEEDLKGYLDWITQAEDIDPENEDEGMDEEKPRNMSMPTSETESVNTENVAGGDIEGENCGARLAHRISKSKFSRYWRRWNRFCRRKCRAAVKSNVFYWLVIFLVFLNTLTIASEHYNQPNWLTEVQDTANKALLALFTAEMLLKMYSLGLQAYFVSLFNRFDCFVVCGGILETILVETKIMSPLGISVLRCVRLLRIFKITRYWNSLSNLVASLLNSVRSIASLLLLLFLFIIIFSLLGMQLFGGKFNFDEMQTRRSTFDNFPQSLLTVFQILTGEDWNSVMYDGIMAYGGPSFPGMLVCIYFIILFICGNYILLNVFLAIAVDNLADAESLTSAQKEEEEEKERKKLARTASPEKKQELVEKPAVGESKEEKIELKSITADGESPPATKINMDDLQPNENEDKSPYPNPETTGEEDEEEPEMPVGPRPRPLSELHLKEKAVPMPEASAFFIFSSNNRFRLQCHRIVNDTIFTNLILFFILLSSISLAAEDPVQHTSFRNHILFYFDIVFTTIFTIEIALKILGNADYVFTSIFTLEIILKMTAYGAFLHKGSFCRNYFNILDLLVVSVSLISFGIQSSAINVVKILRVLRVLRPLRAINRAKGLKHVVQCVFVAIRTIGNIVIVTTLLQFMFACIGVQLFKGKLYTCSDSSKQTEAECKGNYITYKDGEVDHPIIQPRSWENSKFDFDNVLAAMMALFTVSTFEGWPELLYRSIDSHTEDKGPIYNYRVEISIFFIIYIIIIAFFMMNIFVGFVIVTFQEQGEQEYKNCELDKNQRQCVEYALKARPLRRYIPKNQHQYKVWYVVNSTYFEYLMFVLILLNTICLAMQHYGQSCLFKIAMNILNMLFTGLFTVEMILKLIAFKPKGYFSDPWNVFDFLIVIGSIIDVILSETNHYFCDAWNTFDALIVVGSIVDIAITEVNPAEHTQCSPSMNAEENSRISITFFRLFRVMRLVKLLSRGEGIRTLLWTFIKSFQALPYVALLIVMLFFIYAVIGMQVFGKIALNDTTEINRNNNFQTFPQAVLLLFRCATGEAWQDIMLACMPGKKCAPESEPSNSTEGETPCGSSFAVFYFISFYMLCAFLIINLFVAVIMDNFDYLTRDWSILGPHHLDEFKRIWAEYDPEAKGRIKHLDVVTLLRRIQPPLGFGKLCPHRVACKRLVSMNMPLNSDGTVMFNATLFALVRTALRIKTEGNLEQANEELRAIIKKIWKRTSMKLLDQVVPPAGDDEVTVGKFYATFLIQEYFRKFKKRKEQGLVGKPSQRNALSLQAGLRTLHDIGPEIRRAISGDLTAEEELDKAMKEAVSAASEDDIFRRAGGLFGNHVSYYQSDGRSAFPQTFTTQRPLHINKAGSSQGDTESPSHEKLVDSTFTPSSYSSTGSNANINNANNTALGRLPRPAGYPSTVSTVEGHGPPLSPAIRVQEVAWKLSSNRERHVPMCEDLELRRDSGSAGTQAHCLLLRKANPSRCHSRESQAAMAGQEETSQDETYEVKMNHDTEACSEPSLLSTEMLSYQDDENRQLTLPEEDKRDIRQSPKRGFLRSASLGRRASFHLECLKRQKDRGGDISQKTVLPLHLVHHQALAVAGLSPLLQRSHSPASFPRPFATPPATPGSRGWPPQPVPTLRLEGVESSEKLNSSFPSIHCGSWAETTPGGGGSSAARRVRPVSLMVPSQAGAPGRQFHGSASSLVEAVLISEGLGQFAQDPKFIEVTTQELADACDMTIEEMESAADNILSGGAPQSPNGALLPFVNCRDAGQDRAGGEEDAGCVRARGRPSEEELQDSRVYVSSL
hCav1.2, sequence (Q08289 whole entry partner): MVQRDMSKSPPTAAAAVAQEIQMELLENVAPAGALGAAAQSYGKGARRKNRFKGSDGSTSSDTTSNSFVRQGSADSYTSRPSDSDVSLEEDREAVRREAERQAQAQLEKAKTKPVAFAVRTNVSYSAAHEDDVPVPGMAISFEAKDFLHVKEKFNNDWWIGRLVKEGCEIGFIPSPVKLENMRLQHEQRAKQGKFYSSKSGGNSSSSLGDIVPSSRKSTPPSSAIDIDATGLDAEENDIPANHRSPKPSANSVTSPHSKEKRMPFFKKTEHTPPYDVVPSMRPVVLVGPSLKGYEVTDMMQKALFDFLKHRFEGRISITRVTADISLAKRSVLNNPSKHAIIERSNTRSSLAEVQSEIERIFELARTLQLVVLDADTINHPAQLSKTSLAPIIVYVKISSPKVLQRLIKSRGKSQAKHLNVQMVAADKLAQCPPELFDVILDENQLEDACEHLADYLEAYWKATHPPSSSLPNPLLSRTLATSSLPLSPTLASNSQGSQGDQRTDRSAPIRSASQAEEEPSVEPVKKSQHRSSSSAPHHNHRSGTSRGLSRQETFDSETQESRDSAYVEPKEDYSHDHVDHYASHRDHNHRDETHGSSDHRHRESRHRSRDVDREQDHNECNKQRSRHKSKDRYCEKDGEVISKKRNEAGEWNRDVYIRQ
hCav1.2, sequence (P54289 25-956 partner limits assumed): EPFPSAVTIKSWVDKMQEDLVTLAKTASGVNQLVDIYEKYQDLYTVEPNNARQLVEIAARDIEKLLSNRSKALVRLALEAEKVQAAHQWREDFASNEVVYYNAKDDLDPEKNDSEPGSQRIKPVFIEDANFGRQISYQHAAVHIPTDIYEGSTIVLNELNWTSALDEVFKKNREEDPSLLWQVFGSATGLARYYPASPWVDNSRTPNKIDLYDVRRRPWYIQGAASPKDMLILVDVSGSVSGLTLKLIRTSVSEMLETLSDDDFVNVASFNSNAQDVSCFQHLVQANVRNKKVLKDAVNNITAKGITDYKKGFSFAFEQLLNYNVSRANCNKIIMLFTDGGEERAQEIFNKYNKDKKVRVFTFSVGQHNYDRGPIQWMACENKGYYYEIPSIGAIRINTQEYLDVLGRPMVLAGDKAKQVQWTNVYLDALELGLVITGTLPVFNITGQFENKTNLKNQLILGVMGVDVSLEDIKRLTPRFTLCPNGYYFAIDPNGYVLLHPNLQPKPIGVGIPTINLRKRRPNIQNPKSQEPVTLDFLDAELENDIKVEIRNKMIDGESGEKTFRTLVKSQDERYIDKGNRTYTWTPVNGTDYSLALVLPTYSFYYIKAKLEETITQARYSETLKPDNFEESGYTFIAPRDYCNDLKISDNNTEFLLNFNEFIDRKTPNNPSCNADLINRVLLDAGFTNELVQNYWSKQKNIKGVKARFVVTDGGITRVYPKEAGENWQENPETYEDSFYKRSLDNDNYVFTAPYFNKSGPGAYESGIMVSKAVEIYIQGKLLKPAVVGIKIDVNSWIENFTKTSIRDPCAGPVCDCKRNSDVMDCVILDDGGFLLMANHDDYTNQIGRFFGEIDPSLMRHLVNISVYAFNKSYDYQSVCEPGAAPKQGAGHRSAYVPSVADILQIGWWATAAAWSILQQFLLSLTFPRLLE
hCav1.2, sequence (P54289 957-1103 partner limits assumed): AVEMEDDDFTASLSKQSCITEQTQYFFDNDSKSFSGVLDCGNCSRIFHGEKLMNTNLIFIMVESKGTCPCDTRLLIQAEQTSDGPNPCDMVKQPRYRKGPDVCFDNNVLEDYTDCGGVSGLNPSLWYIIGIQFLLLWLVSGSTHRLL

Cc1cccc(C)c1OCC(C)N (stereo not shown) [mex, mexiletine]
IC50 (hCav1.2; site s01_p1): 372 µM | IC50 (hCav1.2; site s06_p4): 178 µM | IC50 (hCav1.2; site s14_p1): 234 µM | IC50 (hCav1.2; site s16_p3): 251 µM | IC50 (hCav1.2; site s18_p1): 162 µM | nH, Hill slope (hCav1.2; site s01_p1): 0.60 | Peak hCav1.2 Ca2+ current inhibition, Mean (hCav1.2; site s01_p1, 1.00E-04 mol/L): 34.0% | Peak hCav1.2 Ca2+ current inhibition, Mean (hCav1.2; site s01_p1, 1.00E-06 mol/L): 10.1% | log IC50, half-maximal inhibitory concentration (hCav1.2; site s02_p2, corrected for rundown): no inh. | Peak hCav1.2 Ca2+ current inhibition, Mean (hCav1.2; site s02_p2, corrected for rundown, 1.00E-04 mol/L): 1.8% | Peak hCav1.2 Ca2+ current inhibition, Mean (hCav1.2; site s02_p2, corrected for rundown, 1.00E-06 mol/L): -11.1% | nH, Hill slope (hCav1.2; site s06_p4): 0.87 | Peak hCav1.2 Ca2+ current inhibition, Mean (hCav1.2; site s06_p4, 1.00E-04 mol/L): 39.1% | Peak hCav1.2 Ca2+ current inhibition, Mean (hCav1.2; site s06_p4, 1.00E-06 mol/L): 0.5% | log IC50, half-maximal inhibitory concentration (hCav1.2; site s11_p1): no inh. | Peak hCav1.2 Ca2+ current inhibition, Mean (hCav1.2; site s11_p1, 1.00E-04 mol/L): 22.9% | Peak hCav1.2 Ca2+ current inhibition, Mean (hCav1.2; site s11_p1, 1.00E-06 mol/L): 12.9% | nH, Hill slope (hCav1.2; site s14_p1): 2.00 | Peak hCav1.2 Ca2+ current inhibition, Mean (hCav1.2; site s14_p1, 1.00E-04 mol/L): 16.2% | Peak hCav1.2 Ca2+ current inhibition, Mean (hCav1.2; site s14_p1, 1.00E-06 mol/L): -17.7% | nH, Hill slope (hCav1.2; site s16_p3): 0.80 | Peak hCav1.2 Ca2+ current inhibition, Mean (hCav1.2; site s16_p3, 1.00E-04 mol/L): 31.7% | Peak hCav1.2 Ca2+ current inhibition, Mean (hCav1.2; site s16_p3, 1.00E-06 mol/L): -0.3% | nH, Hill slope (hCav1.2; site s18_p1): 1.07 | Peak hCav1.2 Ca2+ current inhibition, Mean (hCav1.2; site s18_p1, 1.00E-04 mol/L): 35.7% | Peak hCav1.2 Ca2+ current inhibition, Mean (hCav1.2; site s18_p1, 1.00E-06 mol/L): 2.3% | IC50 (hERG; hERG K+ current log IC50, s01_p1, CHO, 23 °C): 138 µM | IC50 (hERG; hERG K+ current log IC50, s02_p2, HEK293, 22–26 °C): 110 µM | IC50 (hERG; hERG K+ current log IC50, s03_p2, HEK293, room temperature): 20.4 µM | IC50 (hERG; hERG K+ current log IC50, s04_p3, CHO, room temperature): 47.9 µM | IC50 (hERG; hERG K+ current log IC50, s15_p1, HEK293, 22–23 °C): 24 µM | IC50 (hERG; hERG K+ current log IC50, s16_p3, HEK293, room temperature): 85.1 µM | inhibition at 0.0001 mol/L (hERG; human, hERG K+ current inhibition, Mean, site_platform s07_p5, 1.00E-04 mol/L): 65% | inhibition at 1e-06 mol/L (hERG; human, hERG K+ current inhibition, Mean, site_platform s07_p5, 1.00E-06 mol/L): -10.5% | inhibition at 4 min, 0.0001 mol/L (hERG; human, hERG K+ current inhibition, Mean, site_platform s10_p3, 1.00E-04 mol/L): 42% | inhibition at 4 min, 1e-06 mol/L (hERG; human, hERG K+ current inhibition, Mean, site_platform s10_p3, 1.00E-06 mol/L): -3.5% | inhibition at 7 min, 0.0001 mol/L (hERG; human, hERG K+ current inhibition, Mean, site_platform s11_p1, 1.00E-04 mol/L): 73.7% | inhibition at 0.0001 mol/L (hERG; human, hERG K+ current inhibition, Mean, site_platform s12_p2, 1.00E-04 mol/L): 56.6% | inhibition at 1e-06 mol/L (hERG; human, hERG K+ current inhibition, Mean, site_platform s12_p2, 1.00E-06 mol/L): 0.2% | inhibition at 0.0001 mol/L (hERG; human, hERG K+ current inhibition, Mean, site_platform s13_p2, 1.00E-04 mol/L): 78.6% | inhibition at 1e-06 mol/L (hERG; human, hERG K+ current inhibition, Mean, site_platform s13_p2, 1.00E-06 mol/L): 7.7% | inhibition at 7 min, 0.0001 mol/L (hERG; human, hERG K+ current inhibition, Mean, site_platform s14_p1, 1.00E-04 mol/L): 60.2% | inhibition at 7 min, 1e-06 mol/L (hERG; human, hERG K+ current inhibition, Mean, site_platform s14_p1, 1.00E-06 mol/L): 10.8% | inhibition at 7 min, 1e-06 mol/L (hERG; human, recombinant cells expressing hERG, hERG K+ current inhibition, Mean, site_platform s11_p1, 1.00E-06 mol/L): 29.4% | IC50 (hERG; log IC50, hERG K+ current inhibition, site_platform s07_p5): 72.4 µM | IC50 (hERG; log IC50, hERG K+ current inhibition, site_platform s10_p3): 126 µM | IC50 (hERG; log IC50, hERG K+ current inhibition, site_platform s11_p1): 15.8 µM | IC50 (hERG; log IC50, hERG K+ current inhibition, site_platform s12_p2): 77.6 µM | IC50 (hERG; log IC50, hERG K+ current inhibition, site_platform s13_p2): 34.7 µM | IC50 (hERG; log IC50, hERG K+ current inhibition, site_platform s14_p1): 63.1 µM | hERG K+ current nH, Hill slope (hERG; s01_p1, CHO, 23 °C): 0.78 | hERG K+ current inhibition, Mean, at maximal concentration (hERG; s01_p1, CHO, 23 °C): 46.1% | hERG K+ current inhibition, Mean, at minimal concentration (hERG; s01_p1, CHO, 23 °C): 0.7% | hERG K+ current nH, Hill slope (hERG; s02_p2, HEK293, 22–26 °C): 0.95 | hERG K+ current inhibition, Mean, at maximal concentration (hERG; s02_p2, HEK293, 22–26 °C): 48.2% | hERG K+ current inhibition, Mean, at minimal concentration (hERG; s02_p2, HEK293, 22–26 °C): 1.0% | hERG K+ current nH, Hill slope (hERG; [1]): 0.95 | hERG K+ current inhibition, Mean, at maximal concentration (hERG; [1]): 86.8% | hERG K+ current inhibition, Mean, at minimal concentration (hERG; [1]): 14.6% | hERG K+ current nH, Hill slope (hERG; s04_p3, CHO, room temperature): 0.81 | hERG K+ current inhibition, Mean, at maximal concentration (hERG; s04_p3, CHO, room temperature): 67.4% | hERG K+ current inhibition, Mean, at minimal concentration (hERG; s04_p3, CHO, room temperature): 9.7% | hERG K+ current log IC50 (hERG; s05_p4, HEK293, 22–24 °C): -4.37 log mol/L | hERG K+ current nH, Hill slope (hERG; s05_p4, HEK293, 22–24 °C): 1.45 | hERG K+ current inhibition, Mean, at maximal concentration (hERG; s05_p4, HEK293, 22–24 °C): 75.7% | hERG K+ current nH, Hill slope (hERG; s15_p1, HEK293, 22–23 °C): 0.72 | hERG K+ current inhibition, Mean, at maximal concentration (hERG; s15_p1, HEK293, 22–23 °C): 74.6% | hERG K+ current inhibition, Mean, at minimal concentration (hERG; s15_p1, HEK293, 22–23 °C): 10.3% | hERG K+ current nH, Hill slope (hERG; [2]): 0.76 | hERG K+ current inhibition, Mean, at maximal concentration (hERG; [2]): 52.6% | hERG K+ current inhibition, Mean, at minimal concentration (hERG; [2]): 3.9% | hERG K+ current nH, Hill slope (hERG; s18_p1, CHO, 35 °C): 1.12 | hERG K+ current inhibition, Mean, at maximal concentration (hERG; s18_p1, CHO, 35 °C): 70.4%
